These results are taken from ChEMBL document CHEMBL5726139, “Heterocyclic compounds and methods of their use” (2017).

One may read the IC50 as the concentration that inhibits the measured activity by half.

This assay addresses T1, Type-2 angiotensin II receptor (Homo sapiens, UniProt P50052).
T1 sequence (P50052 whole entry): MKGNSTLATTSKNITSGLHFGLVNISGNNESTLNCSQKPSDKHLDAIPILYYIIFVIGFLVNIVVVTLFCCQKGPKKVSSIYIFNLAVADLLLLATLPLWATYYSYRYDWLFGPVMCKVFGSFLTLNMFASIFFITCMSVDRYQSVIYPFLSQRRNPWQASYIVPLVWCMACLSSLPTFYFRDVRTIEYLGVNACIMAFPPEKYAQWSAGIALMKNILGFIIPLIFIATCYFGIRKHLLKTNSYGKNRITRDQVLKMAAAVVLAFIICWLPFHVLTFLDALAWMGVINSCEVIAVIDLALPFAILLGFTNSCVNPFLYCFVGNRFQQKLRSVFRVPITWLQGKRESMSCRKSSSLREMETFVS
The assay is described as follows: Receptor Binding Assay: 120 μL membrane ([…]) was incubated with 15 μL of [125I]-CGP42112A and 15 μL of compound at RT for 1.5 hrs. The binding reaction was stopped by rapid filtration through Unifilter GF/C plates (presoaked in 0.3% (v:v) BSA). Plate was washed three times with ice cold wash buffer. The filtration plates were dried at 37° C. overnight. 50 μL of scintillation cocktail was added to each well. Radioactivity was determined using MicroBetaTriluxmicroplate scintillation counter.

Each structure is given as a SMILES string.

For the compound `CN(CCCc1ccc(F)cc1)[C@H]1C[C@@H](c2nnn[nH]2)N(C(=O)C(c2ccccc2)c2ccccc2)C1`, the IC50 is 3.52 nM.

In the case of `O=C(O)[C@@H]1C[C@H](NC(=O)N(c2ccccc2)c2ccccc2)CN1C(=O)C(c1ccccc1)c1ccccc1`, the IC50 was found to be 3360 nM.

`CN(CCc1ccccc1)[C@H]1C[C@@H](C(=O)O)N(C(=O)C(c2ccccc2)c2ccccc2)C1`: the 50% inhibitory concentration (IC50) came to 384 nM.

Take `O=C(C(c1ccccc1)c1ccccc1)N1C[C@H](OCCCc2ccccc2)[C@H]1CO`: the IC50 was 2050 nM.

In the case of `CC(=O)N(CCCc1ccccc1)[C@H]1C[C@@H](C(=O)O)N(C(=O)C(c2ccccc2)c2ccccc2)C1`, the IC50 is 240 nM.

As to `O=C(C(c1ccccc1)c1ccccc1)N1C[C@@H](OCCCc2ccccc2)[C@H]1CO`, the IC50 is 650 nM.
